# From US20110136916A1, “6-SHOGAOL FOR USING IN A METHOD FOR THE TREATMENT OF LEUKEMIA” (China Pharmaceutical University, priority 2009, published 2011)
# “Also recorded” adds a separate entry of the source. Where two headings read alike, the source gives them in different places.
# Key:
# [1] = test system: human chronic granulocytic leukemia K562; experiment: MTT anti-proliferation, K562; format: cell-based; conditions: for IC50: K562, MTT, n = 3; for growth inhibition (activities of cells vs control): K562, 1-20 μM
# Experimental: (§1) Cells in logarithmic growth phase were collected and then inoculated in 1˜2×10^4 cells/well in a 96-well plate respectively according to the sizes of cells and whether they attached to the wall, the cells were centrifuged and the supernatant was removed after growing for 24 hours, and then drug administration was carried out according to the groups as below: the drug group and the drug free group were set up for tumor cells (the concentrations ranged from 1˜20 μM), 5 or 6 duplicates were set for each group and the cells were incubated for 24 or 72 hours. The supernatant was removed and 100 μl serum free culture solution containing 0.5 mg/ml MTT (tetrazolium) was added for further incubation for 4 hours, subsequently 100 μl DMSO (dimethyl sulfoxide) was added and the plate was kept on the micro-shaker for 10 minutes, and the OD value was determined on a micro-plate reader at the wavelength of 570 nm. Evaluations on the toxicity were carried out on normal human cell line LO-2 and each test was repeated for three times.
# [2] = test system: colon carcinoma HCT15 cells; conditions: cited from earlier work
# [3] = test system: human promyelocytic leukemia cell HL-60; experiment: MTT anti-proliferation, HL-60; format: cell-based; conditions: for growth inhibition (activities of cells vs control): HL-60, 1-20 μM; for IC50: HL-60, MTT, n = 3
# Experimental: as §1
# [4] = test system: human leukemia Jurkat cells; experiment: Annexin V/PI flow cytometry apoptosis of Jurkat cells; format: cell-based; conditions: for Apoptotic rate: Jurkat
# Experimental: Jurkat cells in logarithmic growth phase of growth were collected (3−10×10^5) and inoculated to a 24-well plate in 3×10^5 cells/mL/well, then after incubation for 24 hours, different concentrations of 6-shogaol (0, 1, 2.5, 5, 10 and 15 μM) were added for treatment for 24 hours and also 6-shogaol at a concentration of 15 μM were added for treatment at different durations (0, 2, 4, 6, 12 and 24 h). After reacting with 6-shogaol under different conditions, the cells were collected into 1 mL centrifuge tubes and then centrifuged at 500 rpm (or 100×g) for 5 minutes, the supernatant was removed and the cells were rinsed with 0.01 M PBS at 500 rpm (or 100×g) for 5 minutes twice, and the flow cytometry analysis (Becton Dickinson FACScan Flow Cytometer) was carried out after adding binding solution and staining according to the directions for use of Annexin V/PI double staining kit (BD Company). The FACS data were analyzed by professional operators of the flow cytometer by using FLOWJO software (Tree Star, Calif.) software, the apoptotic rate was counted by the sum of early apoptosis and late apoptosis, and the results were shown in Table 2 and Table 3.
# ddY line mice = conditions: cited from earlier work
# melanoma SK-MEL-2 cells = conditions: cited from earlier work
# [5] = test system: peripheral blood lymphocytes (PBMC) of healthy volunteers; experiment: Annexin V/PI apoptosis of PBMC from healthy volunteers; format: cell-based, human; conditions: 24 hours
# Experimental: After application by the research group and approval by the Ethics Committee of the hospital, the leukemia patients (healthy volunteers) signed the informed consent and their fresh blood was collected and transferred into heparin anticoagulation tubes, then the same volume of serum free D-Hank buffer (preheated at 37° C.) was added to re-suspend the cells, and the suspension was added to the pre-laid human lymphocyte separating medium (preheated at 37° C.), and the volume ratio between the lymphocyte separating medium and the cell suspension should be no lower than 1:1, and the mixture was centrifuged at room temperature (20-30° C.) at 500×g by a horizontal centrifuge for 30 minutes. The upper layer plasma was removed and the white fog layer in the middle was carefully collected and transferred to 5 mL (or 1-2 times of the volume) PBS (or serum free buffer for cell culture), then it was centrifuged at 200×g or 1000 rpm for 10 minutes at room temperature (20-30° C.), and the supernatant was removed, and the obtained precipitation was the peripheral blood lymphocytes (PBMC). The cells were rinsed twice according to the above-mentioned operations at 500×g by the horizontal centrifuge for 10 minutes at room temperature (20-30° C.), subsequently the cells were collected and their cell vitality was detected by using dye exclusion method for living cells (Trypan blue).
# The cells were added to a 24-well plate in 3×10^5 cells/mL/well and different concentrations of 6-shogaol (10 and 20 μM) for treatment for 24 hours after they were incubated for 24 hours. Negative control group (the group without drug) and the treatment group with 6-shogaol were set up for PBMCs from different individuals respectively. After the cells were treated with 6-shogaol for 24 hours, they were transferred into 10 mL glass centrifuge tubes and centrifuged at 500 rpm (or 100×g) for 5 minutes to remove the supernatant. The cells were then rinsed with 0.01 M PBS at 500 rpm (or 100×g) for 5 minutes twice. Subsequently, after adding binding solution and staining according to the directions for use of Annexin V/PI double staining kit (BD Company), flow cytometry analysis (Becton Dickinson FACScan Flow Cytometer) was carried out. The FACS data were analyzed by professional operators of the flow cytometer by using FLOWJO software (Tree Star, Calif.) software, the apoptotic rate was counted by the sum of early apoptosis and late apoptosis, and the results were shown in Table 4 and Table 5.
# [6] = test system: human colon carcinoma COLO 205 cells; conditions: read-out: IC50 for inhibiting the growth of COLO 205 cells; cited from earlier work
# [7] = cited from earlier work
# [8] = 24 hours, read-out: Mean IC50 after 24 hours
# [9] = 72 hours, read-out: Mean IC50 after 72 hours
smiles,measurement,setting,value
CCCCC/C=C/C(=O)CCc1ccc(O)c(OC)c1 [6-shogaol],IC50,"[1]; Homo sapiens, K562, 24 h, 24 hours, read-out: Mean IC50 after 24 hours",< 10 µM
same,IC50,"[1]; Homo sapiens, K562, 72 h, 72 hours, read-out: Mean IC50 after 72 hours",< 5 µM
same,growth inhibition (activities of cells vs control),"[1]; 24 hours, FIG. 5",significantly decreased
same,growth inhibition (activities of cells vs control),"[1]; 72 hours, FIG. 9",significantly decreased
same,IC50,[1]; [8],8.5 ± 0.8 µM
same,IC50,[1]; [9],5 ± 0.62 µM
same,anti-tumor activities,[2],certain anti-tumor activities
same,growth inhibition (activities of cells vs control),"[3]; 24 hours, FIG. 2",significantly decreased
same,growth inhibition (activities of cells vs control),"[3]; 72 hours, FIG. 6",significantly decreased
same,IC50,[3]; [8],6.93 ± 1.28 µM
same,IC50,[3]; [9],3.7 ± 0.25 µM
same,IC50,"[3]; Homo sapiens, HL-60, 24 h, 24 hours, read-out: Mean IC50 after 24 hours",< 10 µM
same,IC50,"[3]; Homo sapiens, HL-60, 72 h, 72 hours, read-out: Mean IC50 after 72 hours",< 5 µM
same,Apoptotic rate,"[4]; 1 μM, 24 hours, n = 3",11.2 ± 0.9bd %
same,Apoptotic rate,"[4]; 2.5 μM, 24 hours, n = 3",17.8 ± 1.4bd %
same,Apoptotic rate,"[4]; 5 μM, 24 hours, n = 3",25.9 ± 3.2bc %
same,Apoptotic rate,"[4]; 10 μM, 24 hours, n = 3",48.7 ± 3.1bd %
same,Apoptotic rate,"[4]; 15 μM, 2 hours, n = 3",7.7 ± 2.1%
same,Apoptotic rate,"[4]; 15 μM, 4 hours, n = 3",14.6 ± 2.5ac %
same,Apoptotic rate,"[4]; 15 μM, 6 hours, n = 3",28.5 ± 3.3bd %
same,Apoptotic rate,"[4]; 15 μM, 12 hours, n = 3",45.3 ± 2.6bd %
same,Apoptotic rate,"[4]; 15 μM, 24 hours, n = 3 (Table 2)",73.2 ± 2.8bd %
same,Apoptotic rate,"[4]; 15 μM, 24 hours, n = 3 (Table 3)",72.3 ± 2.4bd %
same,induction of apoptosis of Jurkat cells (t-test),"[4]; summary statement, concentration and time dependent",significantly induce the apoptosis
same,LD50,ddY line mice; intraperitoneal injection,about 109.2 mg/kg
same,LD50,ddY line mice; intravenous injection,about 50.9 mg/kg
same,LD50,ddY line mice; oral administration,687 mg/kg
same,anti-tumor activities,melanoma SK-MEL-2 cells,certain anti-tumor activities
same,effect on apoptosis of PBMC of healthy volunteers (t-test),"[5]; 10 cases of healthy volunteers, 10 and 20 μM",no significant difference; also recorded: no significant effects
same,Apoptotic rate of 10 μM 6-shogaol,"[5]; PBMC of healthy volunteer N1, 10 μM",17.5 ± 0.8%
same,Apoptotic rate of 20 μM 6-shogaol,"[5]; PBMC of healthy volunteer N1, 20 μM",22.8 ± 0.6%
same,Apoptotic rate of 10 μM 6-shogaol,"[5]; PBMC of healthy volunteer N2, 10 μM",13.6 ± 0.9%
same,Apoptotic rate of 20 μM 6-shogaol,"[5]; PBMC of healthy volunteer N2, 20 μM",12.3 ± 1.4%
same,Apoptotic rate of 10 μM 6-shogaol,"[5]; PBMC of healthy volunteer N3, 10 μM",27.6 ± 2.4%
same,Apoptotic rate of 20 μM 6-shogaol,"[5]; PBMC of healthy volunteer N3, 20 μM",31.9 ± 1.7%
same,Apoptotic rate of 10 μM 6-shogaol,"[5]; PBMC of healthy volunteer N4, 10 μM",8.5 ± 0.8%
same,Apoptotic rate of 20 μM 6-shogaol,"[5]; PBMC of healthy volunteer N4, 20 μM",9.7 ± 1.2%
same,Apoptotic rate of 10 μM 6-shogaol,"[5]; PBMC of healthy volunteer N5, 10 μM",16.6 ± 4.8%
same,Apoptotic rate of 20 μM 6-shogaol,"[5]; PBMC of healthy volunteer N5, 20 μM",12.8 ± 3.6%
same,Apoptotic rate of 10 μM 6-shogaol,"[5]; PBMC of healthy volunteer N6, 10 μM",14.6 ± 0.9%
same,Apoptotic rate of 20 μM 6-shogaol,"[5]; PBMC of healthy volunteer N6, 20 μM",12.3 ± 1.4%
same,Apoptotic rate of 10 μM 6-shogaol,"[5]; PBMC of healthy volunteer N7, 10 μM",14.6 ± 1.4%
same,Apoptotic rate of 20 μM 6-shogaol,"[5]; PBMC of healthy volunteer N7, 20 μM",15.9 ± 0.7%
same,Apoptotic rate of 10 μM 6-shogaol,"[5]; PBMC of healthy volunteer N8, 10 μM",18.5 ± 1.8%
same,Apoptotic rate of 20 μM 6-shogaol,"[5]; PBMC of healthy volunteer N8, 20 μM",21.7 ± 1.6%
same,Apoptotic rate of 10 μM 6-shogaol,"[5]; PBMC of healthy volunteer N9, 10 μM",12.5 ± 2.9%
same,Apoptotic rate of 20 μM 6-shogaol,"[5]; PBMC of healthy volunteer N9, 20 μM",14.8 ± 0.9%
same,Apoptotic rate of 10 μM 6-shogaol,"[5]; PBMC of healthy volunteer N10, 10 μM",12.9 ± 1.3%
same,Apoptotic rate of 20 μM 6-shogaol,"[5]; PBMC of healthy volunteer N10, 20 μM",16.5 ± 0.7%
same,IC50,[6],> 60 µM
same,solubility in ethanol,[7]; ethanol,soluble
same,solubility in water,[7]; water,insoluble
